This note sets out measurements from the Kinase Knowledgebase extract (Sharma et al. 2016).

The target in the assay is EGFR (human) (UniProt P00533).
Sequence of EGFR (human) (P00533 whole entry, looked up): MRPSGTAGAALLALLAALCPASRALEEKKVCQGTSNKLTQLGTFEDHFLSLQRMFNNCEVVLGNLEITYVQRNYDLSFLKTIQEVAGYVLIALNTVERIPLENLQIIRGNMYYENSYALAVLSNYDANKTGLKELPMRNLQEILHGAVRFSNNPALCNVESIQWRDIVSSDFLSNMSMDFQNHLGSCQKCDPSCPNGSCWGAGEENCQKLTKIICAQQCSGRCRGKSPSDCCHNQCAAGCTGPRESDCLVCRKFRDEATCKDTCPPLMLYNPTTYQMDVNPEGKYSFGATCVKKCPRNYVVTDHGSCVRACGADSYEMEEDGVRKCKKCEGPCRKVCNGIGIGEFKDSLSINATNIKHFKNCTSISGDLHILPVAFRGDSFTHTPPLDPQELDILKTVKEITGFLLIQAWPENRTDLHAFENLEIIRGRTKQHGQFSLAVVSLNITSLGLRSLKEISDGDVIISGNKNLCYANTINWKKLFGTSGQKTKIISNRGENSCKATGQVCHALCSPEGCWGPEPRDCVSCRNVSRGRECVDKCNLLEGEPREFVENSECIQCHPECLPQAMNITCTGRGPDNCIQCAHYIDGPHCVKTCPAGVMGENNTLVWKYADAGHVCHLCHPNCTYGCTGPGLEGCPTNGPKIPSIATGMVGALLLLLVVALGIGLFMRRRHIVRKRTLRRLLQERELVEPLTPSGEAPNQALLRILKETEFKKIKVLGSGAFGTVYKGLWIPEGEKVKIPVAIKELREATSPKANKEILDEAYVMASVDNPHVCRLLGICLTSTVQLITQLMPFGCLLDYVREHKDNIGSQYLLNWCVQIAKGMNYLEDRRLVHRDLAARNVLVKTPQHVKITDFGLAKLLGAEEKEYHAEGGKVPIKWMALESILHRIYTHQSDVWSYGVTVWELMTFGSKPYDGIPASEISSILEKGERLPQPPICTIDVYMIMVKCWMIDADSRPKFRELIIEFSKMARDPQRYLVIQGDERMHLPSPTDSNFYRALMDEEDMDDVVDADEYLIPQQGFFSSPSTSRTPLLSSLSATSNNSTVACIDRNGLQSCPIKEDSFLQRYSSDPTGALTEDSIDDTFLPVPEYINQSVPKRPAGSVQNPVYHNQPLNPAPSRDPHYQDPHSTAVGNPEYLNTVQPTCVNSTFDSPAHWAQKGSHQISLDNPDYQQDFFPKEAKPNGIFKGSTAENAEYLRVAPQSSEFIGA

Regarding `Oc1c(Br)cc(Cl)cc1C=NNc1nc2nonc2nc1Nc1ccc(Cl)c(Cl)c1`, the IC50 is < 1000 nM. As to `Clc1ccc(Nc2nc3nonc3nc2NN=Cc2cc3ccccc3o2)cc1Cl`, the IC50 was < 1000 nM. With `Cc1cccc(Nc2nc3nonc3nc2NN=Cc2ccc(-c3cccc(C(=O)O)c3)o2)c1` the figure was < 1000 nM; with `COc1ccc(C=NNc2nc3nonc3nc2Nc2ccc(Cl)c(Cl)c2)c(O)c1`, < 1000 nM. As for `O=C1Nc2ccccc2C1=NNc1nc2nonc2nc1Nc1ccc(Cl)c(Cl)c1`, the figure is < 1000 nM; as for `O=C(O)c1cc(-c2ccc(C=NNc3nc4nonc4nc3Nc3ccc(Br)cc3)o2)ccc1Cl`, < 1000 nM; as for `O=C(O)c1cccc(-c2ccc(C=NNc3nc4nonc4nc3Nc3ccc(Cl)c(Cl)c3)o2)c1`, < 1000 nM. For `O=C(O)c1ccc(-c2ccc(C=NNc3nc4nonc4nc3Nc3ccc(F)c(Cl)c3)o2)cc1`, the IC50 was < 1000 nM. With `Clc1ccc(Nc2nc3nonc3nc2NN=Cc2ccc(-c3ccccc3)o2)cc1Cl` the figure was < 1000 nM. With `O=[N+]([O-])c1cccc(-c2ccc(C=NNc3nc4nonc4nc3Nc3ccc(F)cc3)o2)c1` the figure was < 1000 nM; with `Cc1cccc(Nc2nc3nonc3nc2NN=Cc2ccc(-c3ccc(Cl)c(C(=O)O)c3)o2)c1C`, < 1000 nM; with `Oc1c(Br)cc(Br)cc1C=NNc1nc2nonc2nc1Nc1ccc(F)c(Cl)c1`, < 1000 nM. In the case of `Clc1ccc(-c2ccc(C=NNc3nc4nonc4nc3Nc3ccc(Cl)c(Cl)c3)o2)cc1`, the IC50 was < 1000 nM. As for `O=C1Nc2ccccc2C1=NNc1nc2nonc2nc1Nc1ccc(F)c(Cl)c1`, the figure is < 1000 nM; as for `COc1cccc(C=NNc2nc3nonc3nc2Nc2ccc(Cl)c(Cl)c2)c1O`, < 1000 nM.

As for `COc1cc(Br)cc(C=NNc2nc3nonc3nc2Nc2cccc(Cl)c2)c1O`, the IC50 is < 1000 nM. As for `O=[N+]([O-])c1cccc(-c2ccc(C=NNc3nc4nonc4nc3Nc3cccc(Cl)c3)o2)c1`, the figure is < 1000 nM; as for `Oc1ccc(C=NNc2nc3nonc3nc2Nc2ccc(Cl)c(Cl)c2)c(O)c1`, < 1000 nM; as for `O=C(O)c1ccc(C=NNc2nc3nonc3nc2Nc2ccc(F)c(Cl)c2)cc1`, < 1000 nM. As for `Fc1ccc(Nc2nc3nonc3nc2NN=Cc2ccc(-c3ccc(Cl)cc3)o2)cc1Cl`, the figure is < 1000 nM.

In the case of `COc1cc(C=NNc2nc3nonc3nc2Nc2ccccc2F)cc([N+](=O)[O-])c1O`, the half-inhibitory concentration (IC50) is < 1000 nM. `NC(=O)c1cccc(-c2ccc(C=NNc3nc4nonc4nc3Nc3ccc(F)c(Cl)c3)o2)c1`: the 50% inhibitory concentration (IC50) was < 1000 nM.

For `Fc1ccc(Nc2nc3nonc3nc2NN=Cc2ccc(-c3ccccc3)o2)cc1Cl`, the IC50 was < 1000 nM. As for `O=C(O)c1cc(-c2ccc(C=NNc3nc4nonc4nc3Nc3ccc(F)cc3)o2)ccc1Cl`, the figure is < 1000 nM. As for `O=C(O)c1cc(-c2ccc(C=NNc3nc4nonc4nc3Nc3ccccc3F)o2)ccc1Cl`, the figure is < 1000 nM; as for `CCOC(=O)c1ccccc1C=NNc1nc2nonc2nc1Nc1ccc(Cl)c(Cl)c1`, < 1000 nM.

With `O=C(O)c1cc(-c2ccc(C=NNc3nc4nonc4nc3Nc3ccc(F)c(Cl)c3)o2)ccc1Cl`, the 50% inhibitory concentration (IC50) is < 1000 nM. Take `O=C(O)c1cc(-c2ccc(C=NNc3nc4nonc4nc3Nc3ccccc3F)o2)ccc1O`: the IC50 was < 1000 nM. On to `Fc1ccc(Nc2nc3nonc3nc2NN=Cc2cc3ccccc3o2)cc1Cl`, for which the half-inhibitory concentration (IC50) was < 1000 nM. Turning to `O=c1[nH]c2ccc(Nc3nc4nonc4nc3NN=Cc3cc(I)cc(I)c3OCc3ccc(Cl)cc3Cl)cc2[nH]1`, the concentration for half-maximal inhibition (IC50) is < 1000 nM. Regarding `O=C(O)c1cccc(C=NNc2nc3nonc3nc2Nc2ccc(Cl)c(Cl)c2)c1`, the IC50 is < 1000 nM. As for `COc1ccc(O)c(C=NNc2nc3nonc3nc2Nc2ccc(Cl)c(Cl)c2)c1`, the figure is < 1000 nM.

Take `O=C(O)c1cccc(C=NNc2nc3nonc3nc2Nc2ccc(F)c(Cl)c2)c1`: the half-maximal inhibitory concentration (IC50) was < 1000 nM. With `Fc1ccc(Nc2nc3nonc3nc2NN=Cc2ccc(-c3ccc(Cl)cc3Cl)o2)cc1` the figure was < 1000 nM; with `NC(=O)c1cccc(-c2ccc(C=NNc3nc4nonc4nc3Nc3ccc(Cl)c(Cl)c3)o2)c1`, < 1000 nM; with `O=C(O)c1ccc(-c2ccc(C=NNc3nc4nonc4nc3Nc3ccc(Cl)c(Cl)c3)o2)cc1`, < 1000 nM. As for `O=C(O)c1ccc(-c2ccc(C=NNc3nc4nonc4nc3Nc3ccc(F)cc3)o2)cc1`, the figure is < 1000 nM; as for `Clc1ccc(Nc2nc3nonc3nc2NN=Cc2ccco2)cc1Cl`, < 1000 nM; as for `Oc1c(Br)cc(Br)cc1C=NNc1nc2nonc2nc1Nc1cccc(Cl)c1`, < 1000 nM. Take `O=C(O)c1cc(-c2ccc(C=NNc3nc4nonc4nc3Nc3ccc(Cl)c(Cl)c3)o2)ccc1Cl`: the IC50 was < 1000 nM.

With `O=C(O)c1cccc(-c2ccc(C=NNc3nc4nonc4nc3Nc3cccc(Cl)c3)o2)c1`, the half-inhibitory concentration (IC50) was < 1000 nM.

The IC50 is the concentration at which inhibition is half-maximal. Low readings indicate higher potency, high ones lower potency.
